# Measured values: US20110300197A1, “FOOD PRODUCT” (Mars, Incorporation, priority 2008, published 2011)
# Key:
# Format in all cases: cell-based, dog
# Aerobes = experiment: Canine plate biofilm assay (PBA): bacterial viable counts, aerobes; conditions: 48 hours, extracts at 500 μg/ml unless otherwise stated, vs no active control
# Description: (§1) The assay requires fresh supragingival canine dental plaque and saliva for inoculation. The inoculum consists of pooled dental plaque and unfiltered saliva sampled from a group of 14 dogs, varying in age, breed and oral health status.
# (§2) The plaque and saliva were resuspended in artificial saliva to form the inoculum of approximately 15% plaque and 30% saliva.
# (§3) The plate biofilm assay (PBA) utilises a 24 well plate format in which biofilms, representative of canine dental plaque, are grown on hydroxyapatite (HA) discs. Prior to being introduced to the 24 well assay plate, each HA disc is preconditioned for 2 hours in a solution of 50% filter sterilised canine saliva in artificial canine saliva. […] Each HA disc, with the exception of those being used for biomass quantification, is placed into 500 μl PBS and vortex mixed for 30 seconds to remove biofilm growth from the disc into solution. […] Biofilm-covered HA discs that are being used for biomass quantification are removed from the 24 well assay plate and used directly in the crystal violet assay.
# (§4) Viable numbers of bacteria were quantified using Columbia blood agar plates supplemented with haemin and menadione. Aerobes were counted after incubation for 2 days and anaerobes, including black pigmenting colonies (BPC), were counted after incubation at appropriate conditions for 9 days. […]
# [1] = system: trypsin-like protease activity; experiment: Canine plate biofilm assay (PBA): trypsin-like protease activity (liquid BAPNA assay); conditions: 48 hours, extracts at 500 μg/ml unless otherwise stated, vs no active control
# Description: as §1, §2
# as §3, with “saliva. The preconditioning step stimulates the formation of a salivary pellicle on the HA disc surface.” for “saliva.”
# Trypsin-like protease activity was measured using the liquid BAPNA assay, a colourimetric assay in which the amount of trypsin present in a sample is directly proportional to the intensity of the colour developed. […]
# [2] = system: black pigmenting colonies (BPC); experiment: Canine plate biofilm assay (PBA): bacterial viable counts, black pigmenting colonies; conditions: 48 hours, extracts at 500 μg/ml unless otherwise stated, vs no active control
# Description: as §1, §2, §3, §4
# [3] = system: biofilms representative of canine dental plaque; experiment: Canine plate biofilm assay (PBA): biomass quantification (crystal violet assay); conditions: 48 hours, extracts at 500 μg/ml unless otherwise stated, OD595 vs no active control
# Description: as §1, §2
# as §3, with “saliva. The preconditioning step stimulates the formation of a salivary pellicle on the HA disc surface.” for “saliva.”
# The total amount of biofilm grown on the HA discs was quantified using the crystal violet staining method. Biomass was represented as being directly proportional to the OD reading at 595 nm (0D595) of the samples compared to controls. […]
# anaerobes = experiment: Canine plate biofilm assay (PBA): bacterial viable counts, anaerobes; conditions: 48 hours, extracts at 500 μg/ml unless otherwise stated, vs no active control
# Description: as §1, §2, §3, §4
compound,measurement,setting,value
"[H]/N=C(\N/C(=N/[H])NCCCCCCNC(=N)NC(=N)Nc1ccc(Cl)cc1)Nc1ccc(Cl)cc1 [Chlorhexidine, chlorhexidine]",Aerobe (Log 10 reduction),Aerobes,2.87 Log 10
same,Protease (% reduction),[1],95.76%
same,BPC (Log 10 reduction),[2],2.74 Log 10
same,Biomass (% reduction),[3],94.40%
same,Anaerobe (Log 10 reduction),anaerobes,2.48 Log 10
